From PubChem BioAssay (NCI) come the findings set out here.

The structures appear in SMILES notation.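 Assay format: 96-well plates, 48-hour exposure. GI50 = concentration required for 50% inhibition of growth. TGI marks complete inhibition of growth.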

The test relates to MDA-MB-468 breast. Put plainly: DTP human tumour cell line panel, 48 h.
As for `O=C1c2ccccc2C(=O)c2sc(Nc3ccc(Cl)cc3)nc21`, the GI50 (commonly the concentration giving 50% growth inhibition) is 1.98 µM and the TGI (commonly the concentration giving total growth inhibition) was determined as 4.68 µM.

Consider `C#C[C@]1(O)CC[C@H]2[C@@H]3CC=C4c5sc(-c6ccc7c(c6)OCO7)nc5CC[C@]4(C)[C@H]3CC[C@@]21C`, for which the GI50 was 2.96 µM and the TGI amounted to 10 µM.

`O=C(Nc1cc(C(F)(F)F)cc(C(F)(F)F)c1)Nc1ccc(OCc2nnc(-c3ccc(Cl)cc3)o2)c(F)c1`: the GI50 was 1 µM and the TGI is 4.17 µM.

Consider `O=C(O)c1cc2cc(O)ccc2[nH]1`, for which the GI50 was over 100 µM and the TGI is over 100 µM.

Consider `Cc1nc2ccccc2c(/C=C/c2ccccc2)c1C(=O)/C=C/c1ccc(Cl)cc1`, for which the GI50 was 1.56 µM and the TGI amounted to 3.15 µM.

Turning to `C=C1[C@@H](O)C[C@H]2C(C)(C)C[C@H](Cl)C[C@]2(C)[C@H]1C[C@H](O)[C@H]1CC(=O)NC1=O`, the GI50 was 0.0138 µM and the TGI was 0.124 µM.

For `COC(=O)c1ccc(NC(N)=NCC(C)(C)COc2ccc(C(F)(F)F)cc2)nc1`, the GI50 is 1.06 µM and the TGI is 2.73 µM.

Regarding `NC(=S)N/N=C/c1ccc(OC(=O)COc2ccccc2)cn1`, the GI50 was 2.31 µM and the TGI amounted to 7.33 µM.

In the case of `CC1=C/C(O)CC(=O)Cc2nc(co2)C(=O)N2CCC=C2C(=O)OC(C(C)C)C(C)/C=C\C(=O)NC/C=C\1` (stereo unspecified), the GI50 was 11.4 µM and the TGI worked out at 27.5 µM.

As for `CCOC(=O)Nc1ccc(C(=O)/C=C/c2ccccc2)cc1`, the GI50 was 25.2 µM and the TGI was over 100 µM.

Take `Clc1ccc(-c2nc(C(Cl)Cl)nc3cc(-c4ccccc4)nn23)cc1`: the GI50 was 0.772 µM and the TGI amounted to 2.15 µM.

For `COc1ccc(C2CC(c3cccc(OC)c3)=NN2C(=O)c2cc(OC)c(OC)c(OC)c2)cc1` (stereo unspecified), the GI50 is 0.484 µM and the TGI is over 100 µM.

In the case of `O=C(Nc1nc(-c2ccccc2)cs1)c1cc(O)c(O)c(O)c1`, the GI50 was 2.46 µM and the TGI stood at 12.7 µM.

`N#CSCC1CC(O)(c2ccccc2)CC(c2ccc(Cl)cc2)O1` (stereo unspecified): the GI50 is 5.07 µM and the TGI came out at 12.9 µM.

Turning to `NS(=O)(=O)c1cccc(Nc2nc(SCC(=O)c3ccc([N+](=O)[O-])cc3)nc3ccccc23)c1`, the GI50 was 15.6 µM and the total growth inhibition concentration (TGI) came to 43.4 µM.

Regarding `CC(=O)[O][Hg][CH2]C1(C)COC(C)([CH2][Hg][O]C(C)=O)CO1` (stereo unspecified), the GI50 is 1.97 µM and the TGI is 4.12 µM.

`CN(C)c1cccc(/C=C(\C#N)c2ccccc2)c1`: the GI50 is 0.402 µM and the TGI was found to be 36.8 µM.

For `CC(C)c1ccc(/C=N/N=C(N)N)cc1`, the GI50 is 1.85 µM and the TGI stood at 5.07 µM.

For `C[n+]1cc2cc3c(cc2c2ccccc21)OCO3`, the GI50 is 0.503 µM and the TGI amounted to 3.45 µM.

Take `CC(=O)Oc1ccccc1C(=O)NCCC[Se]C#N`: the GI50 is 3.19 µM and the TGI worked out at 15.6 µM.

Consider `Cc1ccc(NC(=O)N2CCCCC2)cc1[N+](=O)[O-]`, for which the GI50 is over 100 µM and the TGI was over 100 µM.

On to `c1ccc2c(-c3cnn4cc(-c5ccc(N6CCNCC6)cc5)cnc34)ccnc2c1`, for which the GI50 is 0.335 µM and the TGI came to 1.54 µM.

Consider `O=C(NCCNC(=O)c1ccc(F)cc1)Nc1ccc(-n2cc(-c3ccncc3)c(-c3ccc(Cl)c(O)c3)n2)cc1`, for which the 50% growth inhibitory concentration (GI50) is 0.297 µM and the TGI was found to be 1.65 µM.

Turning to `COc1ccc(Nc2ncc(-c3ccccc3)o2)cc1OC`, the GI50 is over 11.6 µM and the TGI was over 25 µM.

In the case of `CNC12C3C4C1C1C2C3C41C(=O)N[C@H](C(=O)N(C)[C@H](C[C@@H](OC(C)=O)c1nc(C(=O)N[C@@H](Cc2ccccc2)C[C@H](C)C(=O)OC)cs1)C(C)C)C1CC1` (stereo partly specified), the GI50 is 0.0705 µM and the TGI was 1.37 µM.

Consider `N=C1N=C(N)S/C1=C\c1ccc2ncccc2c1`, for which the GI50 is over 25 µM and the TGI is over 25 µM.

Consider `C=C1C(=O)O[C@H]2[C@H]1CC/C(COC(=O)C(=O)c1c[nH]c3ccc(Cl)cc13)=C\CC[C@@]1(C)O[C@@H]21`, for which the GI50 was 0.353 µM and the TGI came to 1.06 µM.

As for `O=C(c1ccccc1)c1ccc(O)c2ncccc12`, the GI50 is 2.41 µM and the total growth inhibition concentration (TGI) turned out to be 7.75 µM.

Regarding `Clc1ccc(N/N=C(\c2ccccc2)c2ccccn2)nc1`, the GI50 is 0.0313 µM and the TGI is 0.316 µM.

For `CC(=O)N1N=C(c2ccc(Nc3nc(Nc4ccc(F)cc4)nc(Nc4ccc(Cl)cc4)n3)cc2)CC1c1ccc(N(C)C)cc1` (stereo unspecified), the GI50 is 5.61 µM and the TGI stood at 33.8 µM.

Regarding `OCc1ncc(-c2ccccc2)s1`, the GI50 is over 100 µM and the TGI was over 100 µM.

Turning to `CNC(C)[C@H]1CCC2C3CCC4C[C@@H](N(C)C(=O)c5ccccc5)CC[C@]4(C)C3CC[C@@]21C` (stereo partly specified), the GI50 was 0.854 µM and the TGI was determined as 2.72 µM.

In the case of `CCOc1ccc(NC(=O)c2cc3ccccc3cc2O)cc1`, the GI50 is 64.6 µM and the TGI is over 100 µM.

Turning to `CCCCCCCCc1ccc(CCC(N)(CO)CO)cc1`, the GI50 is 1.63 µM and the TGI came out at 3.05 µM.

For `CC(=O)OC1CC2(O)C(CCC3(C)C(c4ccc(=O)oc4)CCC32O)C2(C)CCC(OC3OC(CO)C(O)C(O)C3O)C=C12` (stereo unspecified), the GI50 is 0.0611 µM and the TGI was 0.338 µM.

In the case of `COc1cc2oc(-c3cccc(C(=O)Nc4ccc(C)cc4)c3)cc(=O)c2c(OC)c1OC`, the GI50 was 3.88 µM and the TGI turned out to be 24.6 µM.

In the case of `C[C@@H]1CC[C@@H]2[C@@H]1[C@H](OC(=O)c1ccc3ccccc3c1)[C@]1(C3CCCCC3)C[C@@H](OC(=O)CO)[C@@]2(C)O1`, the GI50 was 10.7 µM and the TGI is 26.2 µM.

With `O=C1Nc2ccc(CN3CCOC3=O)cc2/C1=C/c1cc(CN2CCOCC2)c[nH]1`, the GI50 is 20.7 µM and the TGI amounted to 73.3 µM.
